What was measured:
[1] = tested on: drug-sensitive cell lines of Table 3; assay: Cell line growth retardation assay, sensitive cohort; assay type: cell-based, Human; conditions: for IC50: Homo sapiens, 144 h, arithmetic mean of IC50s over the sensitive cohort of Table 3, 6 days growth, read-out: AvgSen IC50; for Fold Diff: average IC50 of resistant cohort divided by average IC50 of sensitive cohort
Experimental: (§1) Cells were seeded at densities of 1,000-5,000 cells per well in 48-well tissue culture plates. After a 24 h rest period, cells were treated with compound at 10 μM, 1 μM, […], 0.08 μM, 0.016 μM, and 0.0032 μM. A group of cells were treated with the vehicle in which the compound was prepared and served as a control. Prior to treatment, cells were counted and this count was used as a baseline for the calculation of growth inhibition. The cells were grown in the presence of compounds for 6 days and were counted on day 6. All cell counting was performed using a Synentec Cellavista plate imager. Growth inhibition was calculated as a ratio of cell population doublings in the presence of compound versus the absence of compound. […] IC50 values for each compound were calculated by fitting curves to data points from each dose-response assay using the Proc NLIN function in SAS for Windows version 9.2 (SAS Institute, Inc.).
(§2) Human cancer cell lines were grouped as “sensitive” or “resistant” to MCL1 inhibition based on whether their growth was retarded by AMG-176 (i.e., (1′S,11R,12S,14E,16S,16aR,18aR)-6′-Chloro-3′,4′,12,13,16,16a,17,18,18a,19-decahydro-16-methoxy-11,12-dimethyl-,Spiro[5,7-etheno-1H,11H-cyclobut[i][1,4]oxazepino[3,4-f][1,2,7]thiadiazacyclohexadecine-2(3H),1′(2′H)-naphthalen]-8(9H)-one 10,10-dioxide) or MIK665 (i.e., (R)-2-((5-(3-chloro-2-methyl-4-(2-(4-methylpiperazin-1-yl)ethoxy)phenyl)-6-(4-fluorophenyl)thieno[2,3-d]pyrimidin-4-yl)oxy)-3-(2-((2-(2-methoxyphenyl)pyrimidin-4-yl)methoxy)phenyl)propanoic acid) (data not shown; see Table 3). These sensitive and resistant cohorts were interrogated for response to each compound, and IC50S were calculated for each cell line using the same technique described above. Average IC50S for the sensitive (“AvgSen IC50”) and resistant (“AvgRes IC50”) cohorts were calculated as arithmetic means of the group, and fold differences (“Fold Diff”) between the resistant and sensitive cohorts were calculated by diving the average IC50 for the resistant cohort by the average IC50 for the sensitive cohort. “A” represents an IC50 of 1 μM or less, “B” represents an IC50 of greater than 1 μM to 5 μM, “C” represents an IC50 of greater than 5 μM, “+” represents a fold difference of 10 or more, and “−” represents a fold difference less than 10.

MCL1 = MCL1 (Homo sapiens, UniProt Q07820); assay: MCL1 affinity assay (competition binding, qPCR readout); conditions: recombinant MCL1, 11-point 3-fold dilution series
Sequence of MCL1 (Q07820 whole entry): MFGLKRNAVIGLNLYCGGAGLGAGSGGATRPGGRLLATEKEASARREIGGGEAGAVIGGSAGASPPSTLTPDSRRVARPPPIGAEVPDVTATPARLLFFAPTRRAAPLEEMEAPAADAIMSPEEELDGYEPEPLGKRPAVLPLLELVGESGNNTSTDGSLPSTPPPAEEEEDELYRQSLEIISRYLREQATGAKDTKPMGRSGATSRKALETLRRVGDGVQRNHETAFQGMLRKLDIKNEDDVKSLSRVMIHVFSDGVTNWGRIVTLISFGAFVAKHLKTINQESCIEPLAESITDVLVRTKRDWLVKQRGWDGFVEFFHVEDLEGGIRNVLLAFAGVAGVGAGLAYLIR
Experimental: Recombinant MCL1, BCL2 and BCXL proteins were prepared in either an E. coli host derived from the BL21 strain or in HEK-293 cells. The recombinant proteins were subsequently tagged with DNA for qPCR detection. Streptavidin-coated magnetic beads were treated for 30 minutes at room temperature with the respective biotinylated peptide ligands for each recombinant protein to generate affinity resins for the assays. The liganded beads were blocked with excess biotin and washed with blocking buffer (SeaBlock (Pierce), 1% BSA, 0.05% Tween 20, 1 mM DTT) to remove unbound ligand and to reduce nonspecific binding. Binding reactions were assembled by combining recombinant protein, liganded affinity beads, and test compounds in 1× binding buffer (20% SeaBlock, 0.17×PBS, 0.05% Tween 20, 6 mM DTT). Test compounds were prepared as 111X stocks in 100% DMSO. The compounds were then diluted directly into the assays such that the final concentration of DMSO was 0.9%. The assay plates were incubated at room temperature with shaking for 1 hour and the affinity beads were washed with wash buffer (1×PBS, 0.05% Tween 20). The beads were then re-suspended in elution buffer (1×PBS, 0.05% Tween 20, 0.5 μM non-biotinylated affinity ligand) and incubated at room temperature with shaking for 30 minutes. The recombinant protein concentration in the eluates was measured by qPCR. Kds were determined using an 11-point 3-fold compound dilution series with three DMSO control points.

[2] = tested on: drug-resistant cell lines of Table 3; assay: Cell line growth retardation assay, resistant cohort; assay type: cell-based, Human; conditions: Homo sapiens, 144 h; arithmetic mean of IC50s over the resistant cohort of Table 3, 6 days growth; read-out: AvgRes IC50
Experimental: as §1, §2

| Kd (MCL1) [µM] | SMILES | IC50 [1] [µM] | Fold Diff [1] | IC50 [2] [µM] |
| --- | --- | --- | --- | --- |
| ≤ 0.1 | COc1ccccc1-c1nccc(COc2ccccc2C[C@@H](Oc2nsc3cnc(-c4cccc(C#N)c4)c(-c4ccc(OCCN5CCN(C)CC5)c(Cl)c4C)c23)C(=O)O)n1 (atropisomer, axis not shown) [Compound 80] | ≤ 1 | + (“+” represents a fold difference of 10 or more) | > 5 |
| ≤ 0.1 | COCc1ccccc1-c1nccc(COc2ccccc2C[C@@H](Oc2nsc3cnc(-c4cccc(OC)c4)c(-c4ccc(OCCN5CCN(C)CC5)c(Cl)c4C)c23)C(=O)O)n1 (atropisomer, axis not shown) [Compound 65] | ≤ 1 | + (“+” represents a fold difference of 10 or more) | > 5 |
| ≤ 0.1 | COc1ccccc1-c1nccc(COc2ccccc2C[C@@H](Oc2nsc3cnc(-c4cccc(F)c4)c(-c4ccc(OCCN5CCN(C)CC5)c(Cl)c4C)c23)C(=O)O)n1 (atropisomer, axis not shown) [Compound 35] | ≤ 1 | + (“+” represents a fold difference of 10 or more) | > 5 |
| > 1.5 | Cc1c(-c2cc(-c3nn(C)c4cc(Cl)ccc34)cc3snc(O[C@H](Cc4ccccc4OCc4ccnn4CC(F)(F)F)C(=O)O)c23)ccc(OCCN2CCN(C)CC2)c1Cl [Compound 94] | > 5 | − (“−” represents a fold difference less than 10) | > 5 |
| 0.101 to 0.5 | COc1cccc(Oc2ccc(-c3nccc(COc4ccccc4C[C@@H](Oc4nsc5cnc(C6CCC6)c(-c6ccc(OCCN7CCN(C)CC7)c(Cl)c6C)c45)C(=O)O)n3)cn2)c1 (atropisomer, axis not shown) [Compound 114] | 1 to 5 | − (“−” represents a fold difference less than 10) | > 5 |
| 0.501 to 1.5 | CCn1ccc(-c2ncc3snc(O[C@H](Cc4ccccc4OCc4ccnc(-c5ccccc5OC)n4)C(=O)O)c3c2-c2ccc(OCCN3CCN(C)CC3)c(Cl)c2C)n1 (atropisomer, axis not shown) [Compound 76] | > 5 | − (“−” represents a fold difference less than 10) | > 5 |
| 0.101 to 0.5 | CCn1cc(-c2ncc3snc(O[C@H](Cc4ccccc4OCc4ccnc(-c5ccccc5OC)n4)C(=O)O)c3c2-c2ccc(OCCN3CCN(C)CC3)c(Cl)c2C)cn1 (atropisomer, axis not shown) [Compound 75] | > 5 | − (“−” represents a fold difference less than 10) | > 5 |
| 0.501 to 1.5 | Cc1c(-c2cc(-n3c(C)c(Cl)c4cc(Cl)cnc43)cc3snc(O[C@H](Cc4ccccc4OCc4ccnn4CC(F)(F)F)C(=O)O)c23)ccc(OCCN2CCN(C)CC2)c1Cl [Compound 100] | 1 to 5 | − (“−” represents a fold difference less than 10) | > 5 |
| 0.101 to 0.5 | COc1cccc(-c2ncc3snc(O[C@H](Cc4ccccc4OCc4ccnc(N5CCCC(F)(F)C5)n4)C(=O)O)c3c2-c2ccc(OCCN3CCN(C)CC3)c(Cl)c2C)c1 (atropisomer, axis not shown) [Compound 61] | ≤ 1 | + (“+” represents a fold difference of 10 or more) | > 5 |
| > 1.5 | Cc1c(-c2cc(-c3nccc4cc(Cl)ccc34)cc3snc(O[C@H](Cc4ccccc4OCc4ccnn4CC(F)(F)F)C(=O)O)c23)ccc(OCCN2CCN(C)CC2)c1Cl [Compound 95] | > 5 | − (“−” represents a fold difference less than 10) | > 5 |
| > 1.5 | Cc1c(-c2c(C3CCC3)ncc3snc(O[C@H](Cc4ccccc4OCc4ccnc(-c5ccc(OCc6ccccc6)nc5)n4)C(=O)O)c23)ccc(OCCN2CCN(C)CC2)c1Cl (atropisomer, axis not shown) [Compound 113] | > 5 | − (“−” represents a fold difference less than 10) | > 5 |
| 0.101 to 0.5 | COc1cc(-c2ncc3snc(O[C@H](Cc4ccccc4OCc4ccnc(-c5ccccc5OC)n4)C(=O)O)c3c2-c2ccc(OCCN3CCN(C)CC3)c(Cl)c2C)ccc1F (atropisomer, axis not shown) [Compound 37] | > 5 | − (“−” represents a fold difference less than 10) | > 5 |
| 0.101 to 0.5 | Cc1c(-c2c(C3CCC3)ncc3snc(O[C@H](Cc4ccccc4OCc4ccnc(-c5cccc(OC(F)(F)F)c5)n4)C(=O)O)c23)ccc(OCCN2CCN(C)CC2)c1Cl (atropisomer, axis not shown) [Compound 117] | 1 to 5 | − (“−” represents a fold difference less than 10) | > 5 |
| ≤ 0.1 | COc1ccccc1-c1nccc(COc2ccccc2C[C@@H](Oc2nsc3cnc(-c4cccc(F)c4)c(-c4ccc(OCCC5CCN(C)CC5)c(Cl)c4C)c23)C(=O)O)n1 (atropisomer, axis not shown) [Compound 102] | 1 to 5 | − (“−” represents a fold difference less than 10) | > 5 |
| ≤ 0.1 | COc1ccccc1-c1nccc(COc2ccccc2C[C@@H](Oc2nsc3cnc(-c4cccc(F)c4)c(-c4ccc(OCCN(C)C)c(Cl)c4C)c23)C(=O)O)n1 (atropisomer, axis not shown) [Compound 55] | ≤ 1 | + (“+” represents a fold difference of 10 or more) | > 5 |
| 0.101 to 0.5 | COc1ccccc1-c1nccc(COc2ccccc2C[C@@H](Oc2nsc3cnc(-c4cnn(CC5CCC5)c4)c(-c4ccc(OCCN5CCN(C)CC5)c(Cl)c4C)c23)C(=O)O)n1 (atropisomer, axis not shown) [Compound 90] | 1 to 5 | − (“−” represents a fold difference less than 10) | > 5 |
| ≤ 0.1 | COc1ccccc1-c1nccc(COc2ccccc2C[C@@H](Oc2nsc3cnc(-c4cnc(C5CC5)o4)c(-c4ccc(OCCN5CCN(C)CC5)c(Cl)c4C)c23)C(=O)O)n1 (atropisomer, axis not shown) [Compound 78] | 1 to 5 | − (“−” represents a fold difference less than 10) | > 5 |
| ≤ 0.1 | Cc1c(-c2c(-c3cccc(F)c3)ncc3snc(O[C@H](Cc4ccccc4OCc4ccnc(OCC(F)(F)F)n4)C(=O)O)c23)ccc(OCCN2CCN(C)CC2)c1Cl (atropisomer, axis not shown) [Compound 69] | ≤ 1 | + (“+” represents a fold difference of 10 or more) | > 5 |
| ≤ 0.1 | COc1cc(-c2ncc3snc(O[C@H](Cc4ccccc4OCc4ccnc(-c5ccccc5OC)n4)C(=O)O)c3c2-c2ccc(OCCN3CCN(C)CC3)c(Cl)c2C)ccn1 (atropisomer, axis not shown) [Compound 33] | ≤ 1 | + (“+” represents a fold difference of 10 or more) | > 5 |
| 0.501 to 1.5 | COc1ccccc1-c1nccc(COc2ccccc2C[C@@H](Oc2nsc3cnc(-c4ccc(F)cc4C)c(-c4ccc(OCCN5CCN(C)CC5)c(Cl)c4C)c23)C(=O)O)n1 (atropisomer, axis not shown) [Compound 86] | 1 to 5 | − (“−” represents a fold difference less than 10) | > 5 |

— patent US20230116602A1, “MCL1 INHIBITORS AND USES THEREOF” (California Institute of Technology, priority 2019, published 2023)
